Measured values: patent US20250221947A1, “METHODS FOR TREATING A CORONAVIRUS INFECTION USING VALPROIC ACID AND DOCOSAHEXAENOIC ACID” (priority 2024, published 2025)
Several values for one entry are separate records, joined by “and”; a condition that tells them apart may be missing. Equal entries are not always repeated. Entries after “also recorded” stand apart in the source; their conditions may differ. Where two headings read alike, the source gives them in different places.

Columns and labels:
HCoV-229E [1] = experiment: HCoV-229E viral replication inhibition in MRC5 cells (antibody- or oligonucleotide-based dot blot); format: cell-based, human coronavirus HCoV-229E; conditions: for inhibition of HCoV-229E viral replication, agent alone: MRC5, MOI 0.1, 48 hours drug, antibody-based assay; for IC50: Human coronavirus 229E; for fold reduction of IC50 for inhibition of viral replication by VPA preincubation: preincubation 24 or 48 hours / at least 24 hours prior to infection
HDAC2 = HDAC2 (Chlorocebus sabaeus, UniProt A0A0D9RT33); experiment: Direct inhibition of HDAC2 activity in Vero cells; format: cell-based; conditions: read-out: IC50 of directly inhibiting HDAC2 activity
[2] = Serum VPA levels in a national data set (LabCorp)
SARS-CoV2 [3] = conditions: dose range of VPA (M range) less than the IC50 of HDAC2 inhibition; cited from earlier work
p21 = p21 induction time course in Vero cells; format: cell-based; conditions: 2.55 mM VPA
COVID-19 [4] = conditions: therapeutic VPA cohort; serum levels for 442 of 691 patients; cited from earlier work
COVID-19 [5] = experiment: Optum retrospective cohort: clinical progression of COVID-19 in patients prescribed or not prescribed VPA; format: in vivo
MRC5 cells = experiment: VPA time course RNAseq in MRC5 cells, SARS-CoV2 interacting (Gordon) gene set; format: cell-based, Homo sapiens
SARS-CoV2 [6] = experiment: SARS-CoV2 replication in MRC5 cells, viral RNA by qRT-PCR; format: cell-based
[7] = in vivo; cited from earlier work
SARS-CoV2 [8] = experiment: Optum dataset case-control analysis: COVID-19 positivity by nucleic acid testing in patients prescribed VPA; format: in vivo; conditions: patients prescribed VPA vs not, exact-matched multivariate analysis
HCoV-229E [9] = experiment: Viral RNA as % of total RNA by RNAseq in MRC5 cells infected with HCoV-229E; format: cell-based, human coronavirus HCoV-229E; conditions: drug added after 1 hour viral incubation, 48 hours; VPA 0.1 or 0.5 mM, DHA 25 μM
[10] = use in pregnant women; cited from earlier work
COVID-19 [11] = conditions: 165 VPA-treated patients admitted for COVID-19; cited from earlier work
[12] = patients on VPA tested by LabCorp, 2021
[13] = COVID-19 infected patients exposed to VPA, propensity-matched or multivariate-adjusted model

Sequence of HDAC2 (A0A0D9RT33 1-488): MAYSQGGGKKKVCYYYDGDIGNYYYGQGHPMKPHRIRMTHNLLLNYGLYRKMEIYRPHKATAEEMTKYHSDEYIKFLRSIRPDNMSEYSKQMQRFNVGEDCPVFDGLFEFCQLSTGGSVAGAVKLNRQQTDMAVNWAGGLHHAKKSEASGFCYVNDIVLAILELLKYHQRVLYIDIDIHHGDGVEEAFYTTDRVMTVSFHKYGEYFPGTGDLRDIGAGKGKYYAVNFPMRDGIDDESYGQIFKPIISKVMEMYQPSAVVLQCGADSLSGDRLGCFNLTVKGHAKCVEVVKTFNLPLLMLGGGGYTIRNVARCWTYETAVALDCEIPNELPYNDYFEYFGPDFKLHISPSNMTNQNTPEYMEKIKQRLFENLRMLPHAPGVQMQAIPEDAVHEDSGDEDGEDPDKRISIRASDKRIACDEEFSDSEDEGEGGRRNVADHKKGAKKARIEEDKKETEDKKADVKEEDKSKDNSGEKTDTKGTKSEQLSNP

CC/C=C\C/C=C\C/C=C\CCCCCCCC(=O)O [ALA, alpha-linolenic acid]
inhibition of HCoV-229E viral replication, agent alone (HCoV-229E [1]): least impact; also recorded: least inhibition

CCCCC/C=C\C/C=C\CCCCCCCC(=O)O [LA, linoleic acid]
inhibition of HCoV-229E viral replication, agent alone (HCoV-229E [1]): substantial inhibitory effect; also recorded: significant inhibition of viral replication

CC(/C=C/C(=O)NO)=C\[C@@H](C)C(=O)c1ccc(N(C)C)cc1 [Trichostatin A, trichostatin A]
inhibition of HCoV-229E viral replication, agent alone (HCoV-229E [1]): did not significantly inhibit viral replication | inhibition of viral replication in combination with DHA (HCoV-229E [1]; with 25 μM DHA): inhibition across the board; also recorded: augmented at the very highest dose of Trichostatin A tested

CCCC(CCC)C(=O)O [VPA, valproic acid]
IC50 (HDAC2): ≥ 2500 µM | share of samples testing 79 μg/mL or higher ([2]; LabCorp, second quarter of 2021): 25% | serum VPA level, mean [2, 12]: 56.7 µg/mL and 56.65 µg/mL | serum VPA level, median [2, 12]: 59.0 µg/mL and 59 µg/mL | inhibition of viral infection (SARS-CoV2 [3]): no measurable inhibition of viral infection | time of earliest p21 induction (p21): 24 h | time of maximal p21 induction (p21): 72 h | OR for contracting COVID-19 (COVID-19 [4]): 0.218 | reduction in ER visits (COVID-19 [5]; [13]): 12-15% | reduction in ICU admissions (COVID-19 [5]; [13]): 14-16% | reduction in hospital admission (COVID-19 [5]; [13]): 17-45% | reduction in mechanical ventilation (COVID-19 [5]; [13]): 33-39% | protective effect against emergency room visits (COVID-19 [5]; univariate (unadjusted) logistic regression): no protective effect against emergency room visits | expression of viral pathogenicity and replication genes (Gordon gene set) (MRC5 cells; MRC5 cells, VPA 24 and 48 hours): down-regulated preferentially | time before gene expression profile changes can be detected (MRC5 cells; coronavirus permissive cell lines, VPA time course): at least 24 hours | time of maximal gene expression profile changes (MRC5 cells; coronavirus permissive cell lines, VPA time course, in some cases): 72 to 96 h | reduction by 24 hours preincubation (SARS-CoV2 [6]; 24 hours preincubation vs none): more than 50% | inhibitory activity against SARS-CoV2 (SARS-CoV2 [6]; MRC5, MOI 0.1, VPA 0.5 mM, DHA 25 μM): substantial inhibitory activity | effect of (additional) preincubation (SARS-CoV2 [6]; VPA: additional preincubation up to 5 days, DHA: preincubation): did not provide any additional effects | % viral RNA detected compared to control MRC5 cells without drug (SARS-CoV2 [6]; preincubation by 24 hours): less than 10% | % viral RNA detected compared to control MRC5 cells without drug (SARS-CoV2 [6]; without preincubation): 20% | target serum concentrations for seizure disorder [7]: 50 to 100 µg/mL | decreased risk of contracting COVID-19 / reduction in COVID-19 positive testing (SARS-CoV2 [8]): 25% | effect on viral replication (viral RNA as % of total RNA) (HCoV-229E [9]): not significantly impacted | elevation of the risk of certain birth defects [10]: roughly three-fold | clinical course vs matched controls (COVID-19 [11]): shorter duration of symptoms, lower in-hospital respiratory worsening, lower ICU admissions, and fewer pulmonary infiltrates | mortality vs matched controls (COVID-19 [11]): not statistically different | IC50 (HCoV-229E [1]; MRC5, HCoV-229E, no preincubation, read-out: IC50 in conventional coronavirus replication assay): ~5000 µM | IC50 (HCoV-229E [1]; MRC5, HCoV-229E, no preincubation, read-out: IC50 in conventional coronavirus replication assay, translated): > 720 µg/mL | IC50 (HCoV-229E [1]; MRC5, read-out: IC50 for inhibition of viral replication, MRC5 incubated with valproic acid at least 24 hours prior to infection): ~600 µM | IC50 (HCoV-229E [1]; MRC5, read-out: IC50 for inhibition of viral replication, corresponding serum level, MRC5 incubated with valproic acid at least 24 hours prior to infection): 85 µg/mL | dose required for antiviral activity (HCoV-229E [1]; VPA used alone, in vitro testing): > 0.6 mM | dose requirement of VPA for antiviral activity in combination with DHA (HCoV-229E [1]; combination of DHA and VPA in vitro (FIG. 4B)): 0.1 mM | fold reduction of IC50 for inhibition of viral replication by VPA preincubation (HCoV-229E [1]): more than 3 fold | fold reduction of IC50 for inhibition of viral replication by VPA preincubation (HCoV-229E [1]; listed as valproic acid): ~10 fold

C/C=C1\NC(=O)[C@H]2CSSCC/C=C/[C@H](CC(=O)N[C@H](C(C)C)C(=O)N2)OC(=O)[C@H](C(C)C)NC1=O [depsipeptide]
IC50 (HCoV-229E [1]; MRC5, read-out: IC50 of inhibition of viral replication, with 25 μM DHA): 0.0001 µM | IC50 (HCoV-229E [1]; MRC5, read-out: IC50 of inhibition of viral replication, without DHA): 0.0008 µM | inhibition of HCoV-229E viral replication, agent alone (HCoV-229E [1]): significant inhibition of viral replication
